In patent US20020119506A1, “Genes encoding UMP kinase, methods for purifying UMP kinase and methods of characterizing UMP kinase” (INSTITUT PASTEUR, priority 2000, published 2002):
Entries after “also recorded” stand apart in the source; their conditions may differ. Where two headings read alike, the source gives them in different places.

What was measured:
[1] = molecular target: T1, UMP kinase from B. subtilis (Bacillus subtilis, UniProt O31749); assay: UMP kinase activity, coupled spectrophotometric assay; format: biochemical
T1 sequence (O31749 1-240): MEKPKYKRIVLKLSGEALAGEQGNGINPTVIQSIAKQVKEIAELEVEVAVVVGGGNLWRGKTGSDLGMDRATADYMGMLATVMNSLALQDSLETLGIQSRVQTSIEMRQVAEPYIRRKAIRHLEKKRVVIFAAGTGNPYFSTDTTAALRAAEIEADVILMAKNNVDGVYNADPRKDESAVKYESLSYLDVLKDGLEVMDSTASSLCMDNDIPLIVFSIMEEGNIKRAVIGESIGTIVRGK
Method: Purification of UMP kinase and activity assays. E. coli overproducing the UMP kinase from B. subtilis was disrupted by sonication in 50 mM Tris-HCl (pH 7.4) and 2 mM UTP. The bacterial extract was heated for 10 min at 65° C., then the precipitated proteins were removed by centrifugation at 10,000 g for 30 min. The supernatant was concentrated by ultrafiltration to about 10 mg of protein/ml, then applied to a Sephacryl S-300 HR column (2.5×110 cm) equilibrated with 50 mM Tris-HCl (pH 7.4), 0.1 M NaCl and 2 mM UTP at a flow rate of 10 ml/h. […] Fractions of 1 ml of protein solution were sampled in Eppendorf tubes and stored at different temperatures between 20° C. and −80° C. The UMP kinase activity was determined at 30° C. using a coupled spectrophotometric assay (0.5 ml final volume) on an Eppendorf PCP6121 photometer [Blondin, 1994 #977]. The “standard” reaction medium contained 50 mM Tris-HCl (pH 7.4), 50 mM KCl, 2 mM MgCl2, 1 mM phosphoenolpyruvate, 0.2 mM NADH, 2 mM ATP, 0.5 mM GTP and 2 units each of lactate dehydrogenase, pyruvate kinase and NDP kinase. The crude or pure preparation of UMP kinase was then added, followed two minutes later by 1.3 mM UMP. The decrease in absorbance at 334 nm (between 0.03 and 0.3/min) was then recorded and corrected for secondary reactions, occurring in the absence of UMP. One unit of UMP kinase corresponds to 1 μmol of product formed per min.
The UMP kinase activity was determined at 30° C. using a coupled spectrophotometric assay (0.5 ml final volume) on an Eppendorf PCP6121 photometer. The “standard” reaction medium contained 50 mM Tris-HCl (pH 7.4), 50 mM KCl, 2 mM MgCl2, 1 mM phosphoenolpyruvate, 0.2 mM NADH, 1 or 2 mM ATP, 0.5 mM GTP and 2 units each of lactate dehydrogenase, pyruvate kinase and NDP kinase. The pure preparation of UMP kinase was then added, followed by 0.3 or 1 mM UMP. The decrease in absorbance at 334 nm (between 0.03 and 0.3/min) was then recorded and corrected for secondary reactions occurring in the absence of UMP. One unit of UMP kinase corresponds to 1 μmol of product formed per min.

[2] = molecular target: T1, UMP kinase from B. subtilis; conditions: for stabilization of UMP kinase activity on storage (in words): crude bacterial extract, UTP ≧2 mM, ATP and GTP 2 mM each, various temperatures
E. coli UMP kinase [3] = molecular target: E. coli UMP kinase (Escherichia coli, UniProt P0A7E9); conditions: cited from earlier work
[4] = molecular target: UMP kinase from H. influenzae (Haemophilus influenzae, UniProt P43890); assay: UMP kinase activity, coupled spectrophotometric assay; format: biochemical
UMP kinase from H. influenzae, sequence (P43890 whole entry): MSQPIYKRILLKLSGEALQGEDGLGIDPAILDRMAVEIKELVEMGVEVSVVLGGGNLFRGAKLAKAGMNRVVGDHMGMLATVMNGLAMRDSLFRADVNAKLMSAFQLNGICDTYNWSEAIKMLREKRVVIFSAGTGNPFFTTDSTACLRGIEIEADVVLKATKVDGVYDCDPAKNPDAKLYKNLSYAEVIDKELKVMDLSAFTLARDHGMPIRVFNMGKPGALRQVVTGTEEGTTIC
Method: The UMP kinase activity was determined at 30° C. using a coupled spectrophotometric assay (0.5 ml final volume) on an Eppendorf PCP6121 photometer. The “standard” reaction medium contained 50 mM Tris-HCl (pH 7.4), 50 mM KCl, 2 mM MgCl2, 1 mM phosphoenolpyruvate, 0.2 mM NADH, 1 or 2 mM ATP, 0.5 mM GTP and 2 units each of lactate dehydrogenase, pyruvate kinase and NDP kinase. The pure preparation of UMP kinase was then added, followed by 0.3 or 1 mM UMP. The decrease in absorbance at 334 nm (between 0.03 and 0.3/min) was then recorded and corrected for secondary reactions occurring in the absence of UMP. One unit of UMP kinase corresponds to 1 μmol of product formed per min. The specific activities of the recombinant enzymes are the following: […]

[5] = molecular target: T2, UMP kinase from M. tuberculosis (Mycobacterium tuberculosis, UniProt P9WHK5); format: biochemical
T2 sequence (P9WHK5 whole entry): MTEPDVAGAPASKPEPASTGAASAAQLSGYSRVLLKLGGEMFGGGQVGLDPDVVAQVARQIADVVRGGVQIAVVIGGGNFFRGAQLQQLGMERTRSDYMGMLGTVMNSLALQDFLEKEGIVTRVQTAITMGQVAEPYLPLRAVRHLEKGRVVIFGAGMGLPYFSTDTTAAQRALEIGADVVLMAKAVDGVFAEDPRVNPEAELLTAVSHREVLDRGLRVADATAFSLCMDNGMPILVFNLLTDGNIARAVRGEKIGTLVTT

[6] = molecular target: T2, UMP kinase from M. tuberculosis; conditions: in the presence of UTP
[7] = molecular target: T1, UMP kinase from B. subtilis; assay: Thermal stability of UMP kinase (FIG. 1)
Method: UMP kinase from B. subtilis overproduced in strain BL21 (DE3)/pDIA17 (over 30% of total E. coli proteins) was recovered in the supernatant after cell breakage in 50 mM Tris-HCl (pH 7.4) and centrifugation. The activity of recombinant UMP kinase declined rapidly upon storage at either room temperature, +4° C. or under frozen state. After 24 h, only 15% of initial UMP kinase activity was recovered. EDTA, thiols, bovine serum albumin, or antiprotease compounds alone or in mixture were ineffective. […] UTP increased the thermal stability of bacterial UMP kinase (FIG. 1), the half maximal inactivation being shifted from 42° C. in the absence of UTP to over 70° C. in the presence of nucleotide.

E. coli UMP kinase [8] = molecular target: T3, E. coli UMP kinase (Escherichia coli, UniProt P0A7E9); assay: UMP kinase activity and activation by guanine nucleotides (comparison enzyme); format: biochemical; conditions: under identical conditions (presence of GTP)
T3 sequence (P0A7E9 whole entry, looked up): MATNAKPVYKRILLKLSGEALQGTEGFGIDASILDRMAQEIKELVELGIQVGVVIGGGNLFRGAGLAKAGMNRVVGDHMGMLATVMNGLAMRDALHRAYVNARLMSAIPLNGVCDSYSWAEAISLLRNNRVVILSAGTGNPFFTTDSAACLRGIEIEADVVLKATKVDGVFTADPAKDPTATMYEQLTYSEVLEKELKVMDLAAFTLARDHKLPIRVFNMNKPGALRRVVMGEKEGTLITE

Nc1nc2c(ncn2[C@H]2C[C@H](O)[C@@H](COP(=O)(O)OP(=O)(O)OP(=O)(O)O)O2)c(=O)[nH]1 [dGTP]
activation of UMP kinase by guanine nucleotides (in words) [1]: effective but with lower affinities and extent of activation; also recorded: can activate at significant rates

O=C(O)CN(CCN(CC(=O)O)CC(=O)O)CC(=O)O [EDTA]
stabilization of UMP kinase activity on storage (in words) [2]: ineffective

Nc1nc2c(ncn2[C@@H]2O[C@H](CO)[C@@H](O)[C@H]2O)c(=O)[nH]1 [guanosine]
activation of E. coli UMP kinase (in words) (E. coli UMP kinase [3]): significant activation

Nc1nc2c(ncn2[C@@H]2O[C@H](COP(=O)(O)OP(=O)(O)OP(=O)(O)O)[C@@H](O)[C@H]2O)c(=O)[nH]1 [GTP]
degree of activation by GTP (factor) [4]: 3 | degree of activation by GTP (factor) [5]: 2 | activation of UMP kinase (fold) ([1]; 2 mM ATP and 1 mM UTP): ten fold activation | EC50 ([1]; 2 mM ATP and 1 mM UTP, read-out: half maximum activation concentration): 100 µM | activity of UMP kinase in the absence of GTP relative to presence ([1]; absence of GTP): twenty times lower

Nc1nc2c(ncn2[C@@H]2O[C@H](COP(=O)(O)O)[C@@H](O)[C@H]2O)c(=O)[nH]1 [GMP]
activation of E. coli UMP kinase (in words) (E. coli UMP kinase [3]): significant activation; also recorded: activated | activation of UMP kinase by guanine nucleotides (in words) [1]: totally ineffective; also recorded: insensitive

O=c1ccn([C@@H]2O[C@H](COP(=O)(O)OP(=O)(O)OP(=O)(O)O)[C@@H](O)[C@H]2O)c(=O)[nH]1 [UTP]
stabilization of UMP kinase activity on storage (in words) [2]: stabilized considerably | Tm [6]: 67 °C | effect of UTP on UMP kinase activity (in words) [1]: antagonized the effect of GTP; also recorded: inhibits | IC50 ([1]; at lower concentration of UMP (50 μM), read-out: I50 of UTP inhibition): 50 µM | Km ([1]; presence of GTP, ATP 1 mM, without inhibition by excess of UMP, read-out: apparent Km for UTP): 30 µM | half maximal inactivation temperature ([7]; in the presence of UTP): over 70 °C

Nc1nc2c(ncn2[C@@H]2O[C@H](COP(=O)(O)OP(=O)(O)NP(=O)(O)O)[C@@H](O)[C@H]2O)c(=O)[nH]1 [GMP-PNP]
activation of UMP kinase by guanine nucleotides (in words) [1]: can activate at significant rates

bovine serum albumin: protein additive tested as stabilizer
stabilization of UMP kinase activity on storage (in words) [2]: ineffective

O=c1ccn([C@@H]2O[C@H](COP(=O)(O)O)[C@@H](O)[C@H]2O)c(=O)[nH]1 [UMP]
UMP concentration at which rates were maximal ([1]; absence of GTP, ATP 1 mM, rates decline at higher UMP): 50 to 70 µM | Km ([1]; absence of GTP, ATP constant (1 mM), read-out: Km for UMP): ~8 µM | UMP concentration at which saturation was attained ([1]; presence of GTP, ATP 1 mM): 0.2 mM

Nc1ncnc2c1ncn2[C@H]1C[C@H](O)[C@@H](COP(=O)(O)OP(=O)(O)OP(=O)(O)O)O1 [dATP]
phosphate donor ability ([1]; compared with ATP): as good as ATP as phosphate donor

Nc1nc2c(ncn2[C@@H]2O[C@@H]3COP(=O)(O)O[C@H]3[C@H]2O)c(=O)[nH]1 [cGMP]
best activator (in words) [4]: highest activation and affinity | nucleotide concentration at which maximal activation is attained [4]: 20 µM | activation of E. coli UMP kinase (in words) (E. coli UMP kinase [3]): significant activation

Nc1ncnc2c1ncn2[C@@H]1O[C@H](COP(=O)(O)OP(=O)(O)OP(=O)(O)O)[C@@H](O)[C@H]1O [ATP]
Km ([1]; ATP varied, absence or presence of GTP (0.5 mM), UMP 1 mM, read-out: apparent Km for ATP): 900 µM

B1: UMP kinase from E. coli: comparison enzyme, bacterial UMP kinase from E. coli (protein, UniProt P0A7E9 2-241, looked up)
Uridylate kinase: ATNAKPVYKRILLKLSGEALQGTEGFGIDASILDRMAQEIKELVELGIQVGVVIGGGNLFRGAGLAKAGMNRVVGDHMGMLATVMNGLAMRDALHRAYVNARLMSAIPLNGVCDSYSWAEAISLLRNNRVVILSAGTGNPFFTTDSAACLRGIEIEADVVLKATKVDGVFTADPAKDPTATMYEQLTYSEVLEKELKVMDLAAFTLARDHKLPIRVFNMNKPGALRRVVMGEKEGTLITE
specific activity (E. coli UMP kinase [8]): 150 μmol/min^−1/mg of protein^−1

B2: UMP kinase from B. subtilis: recombinant pyrH gene product of B. subtilis overproduced in E. coli, hexamer (protein)
chain: T1 sequence (O31749 1-240)
initial UMP kinase activity recovered after storage ([2]; after 24 h, crude extract without UTP, room temperature, +4° C. or frozen): 15% | stability in the absence of UTP (in words) ([2]; irrespective of storage temperature (+4° C., −20° C. or −80° C.)): unstable in the absence of the nucleotide | specific activity of the recombinant enzyme ([1]; 2 mM ATP, 1 mM UMP): 25 units/mg of protein | specific activity of purified recombinant protein ([1]; "standard" assay conditions): 26 U/mg of protein | specific activity of the purified enzyme ([1]; in the presence of GTP): 25 μmol/min^−1/mg of protein^−1 | half maximal inactivation temperature ([7]; in the absence of UTP): 42 °C
